Test results taken from article PMC6429356, “Development of Anthraquinone Analogues as Phosphoglycerate Mutase 1 Inhibitors” (Molecules, 2019).

Experiments:
PGAM1 = biological target: T1, PGAM1 (Homo sapiens, UniProt P18669); assay: PGAM1 enzymatic assay (enolase-pyruvate kinase-LDH coupled, OD 340 nm); type: biochemical; conditions: for IC50: optimized enzymatic assay, mean ± s.d. (n = 3); for inhibition at 10 µM: 10 μM compound, mean ± s.d. (n = 2)
T1 construct: His6 (C); made in house
Description: (§1) Firstly, 1 μL inhibitor in dimethyl sulfoxide (DMSO) incubated with 49 μL 4.6 nM recombinant PGAM1, then 50 μL enzyme mix containing 3 units/mL enolase (Sigma-Aldrich, Saint Louis, MO, USA), 3 units/mL recombinant pyruvate kinase M2 (Sigma-Aldrich), 0.6 units/mL recombinant lactatdehydrogenase (LDH, Sigma-Aldrich), 100 mM Tris-HCl, 100 mM KCl, 5 mM MgCl2, 1 mM adenosine diphosphate (ADP), 0.2 mM the reduced form of nicotinamide adenine dinucleotide (NADH) and 4 mM 3PG was added. PGAM1 activity was measured as the decrease in OD at 340 nm. In addition, we performed a counter screening in which 4mM 2PG was added to 50 μL reaction mix containing the indicated inhibitor, 3 units/mL enolase (Sigma-Aldrich), 3 units/mL recombinant pyruvate kinase M2 (Sigma-Aldrich), 0.6 units/mL recombinant LDH (Sigma-Aldrich), 100 mM Tris-HCl, 100 mM KCl, 5 mM MgCl2, 1 mM ADP and 0.2 mM NADH. The other three enzyme activity was measured as the decrease in OD at 340 nm.

[1] = system: enolase-pyruvate kinase-LDH; assay: Counter screening: control linked enzyme assay with 2PG; type: biochemical; conditions: 0.5 μM compound, pyruvate kinase M2, LDH without PGAM1, mean ± s.d. (n = 2)
Description: as §1

H1299 cells = assay: Cell viability assay (MTT, 72 h), H1299; type: cell-based; conditions: Homo sapiens, NCI-H1299, proliferation, mean ± s.d. (n = 3)
Description: The H1299 cell line was obtained from Guangzhou Jenniobio Biotechnology Co., Ltd. (Guangzhou, China), PC9 and A549 cells were gifted from Deng Jiong’s lab in the School of Medicine, Shanghai Jiao Tong University, Shanghai, China). H1299, PC9 cells were cultured in RPMI-1640 medium and A549 cells were cultured in F-12K medium containing 10% fetal bovine serum (FBS), 100 units/mL of Penicillin and 100 μg/mL Streptomycin. In cell viability assays, 2000 H1299 cells, A549 cells or 1000 PC9 cells per well were seeded in 96-well plate. After attachment for 24 h, the cells were treated with indicated inhibitor for 72 h. After incubation with 0.5 mg/mL methylthiazolyldiphenyl-tetrazolium bromide (MTT) for 4 h, cell viability was measured as the OD at 570 nm.

T1 sequence (P18669 whole entry): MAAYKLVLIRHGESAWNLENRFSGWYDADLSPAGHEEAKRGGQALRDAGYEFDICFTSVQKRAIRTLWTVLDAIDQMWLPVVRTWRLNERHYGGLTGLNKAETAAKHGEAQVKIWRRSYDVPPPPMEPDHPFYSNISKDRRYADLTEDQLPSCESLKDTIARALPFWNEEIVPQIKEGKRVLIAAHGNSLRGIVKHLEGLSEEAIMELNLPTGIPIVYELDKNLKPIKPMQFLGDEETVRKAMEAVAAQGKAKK

Row | SMILES | IC50 (PGAM1) | Inhibition in the Control Linked Enzyme Assay (0.5 μM) [1] | IC50 (H1299 cells) | inhibition at 10 µM (PGAM1)
1 | O=C1c2ccccc2C(=O)c2c1cc(NS(=O)(=O)c1ccccc1I)c(O)c2O [Compound 9q, 2-Iodo-N-(3,4-dihydroxy-9,10-dioxo-9,10-dihydroanthracen-2-yl) benzenesulfonamide] | 0.26 ± 0.03 µM | −2.3 ± 2.4% | 26.4 ± 3.8 µM | –
2 | O=C1c2ccccc2C(=O)c2c1cc(NS(=O)(=O)c1cccc(Br)c1)c(O)c2O [Compound 9o, 3-Bromo-N-(3,4-dihydroxy-9,10-dioxo-9,10-dihydroanthracen-2-yl) benzenesulfonamide] | 0.35 ± 0.005 µM | 7.7 ± 0.2% | 24.5 ± 0.2 µM | –
3 | O=C(O)COc1cc(NS(=O)(=O)c2ccc(Cl)cc2)c2c(c1O)C(=O)c1ccccc1C2=O [Compound 13, 2-((4-((4-chlorophenyl)sulfonamido)-1-hydroxy-9,10-dioxo-9,10-dihydroanthracen-2-yl)oxy) acetic acid] | – | – | – | 34%
4 | CCOC(=O)COc1ccc2c(c1O)C(=O)c1ccccc1C2=O [Compound 6c] | – | – | – | 0%
5 | CCOC(=O)COc1ccc2c(c1OCC(=O)OCC)C(=O)c1ccccc1C2=O [Compound 6a, diethyl 2,2′-((9,10-dioxo-9,10-dihydroanthracene-1,2-diyl)bis(oxy)) diacetate] | – | – | – | -0.6 ± 1%
6 | O=C(O)COc1ccc2c(c1O)C(=O)c1ccccc1C2=O [Compound 6d] | – | – | – | 5.5 ± 0.03%
7 | CN(C)C(=O)COc1ccc2c(c1O)C(=O)c1ccccc1C2=O [Compound 6e, 2-((1-hydroxy-9,10-dioxo-9,10-dihydroanthracen-2-yl)oxy)-N,N-dimethylacetamide] | – | – | – | 20.2 ± 2.2%
8 | O=C(O)COc1ccc2c(c1OCC(=O)O)C(=O)c1ccccc1C2=O [Compound 6b, 2,2′-((9,10-dioxo-9,10-dihydroanthracene-1,2-diyl)bis(oxy)) diacetic acid] | – | – | – | 14.3 ± 5.9%
9 | CCOC(=O)COc1cc(NS(=O)(=O)c2ccc(Cl)cc2)c2c(c1O)C(=O)c1ccccc1C2=O [Compound 12, ethyl 2-((4-((4-chlorophenyl)sulfonamido)-1-hydroxy-9,10-dioxo-9,10-dihydroanthracen-2-yl)oxy) acetate] | – | – | – | 10%

Continued, values first:

Row | IC50 (PGAM1) | Inhibition in the Control Linked Enzyme Assay (0.5 μM) [1] | IC50 (H1299 cells) | inhibition at 10 µM (PGAM1) | SMILES
10 | > 10 µM | – | – | – | CCOC(=O)COc1c(NS(=O)(=O)c2ccc(Cl)cc2)cc2c(c1O)C(=O)c1ccccc1C2=O [Compound 14a, ethyl 2-((3-((4-chlorophenyl)sulfonamido)-1-hydroxy-9,10-dioxo-9,10-dihydroanthracen-2-yl)oxy) acetate]
11 | > 10 µM | – | – | – | O=C(O)COc1c(NS(=O)(=O)c2ccc(Cl)cc2)cc2c(c1O)C(=O)c1ccccc1C2=O [Compound 14b, 2-((3-((4-chlorophenyl)sulfonamido)-1-hydroxy-9,10-dioxo-9,10-dihydroanthracen-2-yl)oxy) acetic acid]
12 | > 10 µM | – | – | – | O=C1c2ccccc2C(=O)c2c1cc1c(c2O)OCCN1S(=O)(=O)c1ccc(Cl)cc1 [Compound 14e, 4-((4-chlorophenyl)sulfonyl)-12-hydroxy-3,4-dihydro-2H-anthra[2,3-b][1,4]-oxazine-6,11-dione]
13 | 2.92 ± 0.11 µM | – | 26.9 ± 2.1 µM | – | COc1c(NS(=O)(=O)c2ccc(Cl)cc2)cc2c(c1O)C(=O)c1ccccc1C2=O [Compound 14c, 4-chloro-N-(4-hydroxy-3-methoxy-9,10-dioxo-9,10-dihydroanthracen-2-yl) benzene-sulfonamide]
14 | > 10 µM | – | 28.5 ± 0.6 µM | – | CS(=O)(=O)Oc1c(NS(=O)(=O)c2ccc(Cl)cc2)cc2c(c1O)C(=O)c1ccccc1C2=O [Compound 14g, 3-((4-chlorophenyl)sulfonamido)-1-hydroxy-9,10-dioxo-9,10-dihydroanthracen-2-yl methanesulfonate]
15 | 2 ± 0.2 µM | – | > 100 µM | – | NNC(=O)COc1c(NS(=O)(=O)c2ccc(Cl)cc2)cc2c(c1O)C(=O)c1ccccc1C2=O [Compound 14f, 4-chloro-N-(3-(2-hydrazinyl-2-oxoethoxy)-4-hydroxy-9,10-dioxo-9,10-dihydroanthracen-2-yl) benzenesulfonamide]
